Like-named read-outs stand apart in the source and are kept apart here. Numbered stars: 1 amine (or outer) side, 2 acyl side, 3 side chain; on linkers, the order of the positions; unused ones are H or OH. Bridge positions count the residues as written; N and C are the ends. Square brackets hold non-standard residues; d marks the D form. Peptide text beside a SMILES is read from it. ξ: configuration not given here. X3 = C/C=C(\C)[C@@H](O[*:2])[C@@H](C)[C@@H](O)C/C=C(\C)C(=O)[*:1]; X8 = C/C=C(\C)[C@@H](O[*:2])[C@@H](C)CC/C=C(\C)C(=O)[*:1]; X7 = C/C(=C\CCC[C@H](O[*:2])C(C)C)C(=O)[*:1]; X5 = C/C(=C\CC[C@H](C)CO[*:2])C(=O)[*:1]; dNMeF = CN[C@H](Cc1ccccc1)C(=O)O; Ile(3ξ) = CCC(C)[C@H](N)C(=O)O; dHica = CC(C)C[C@@H](O)C(=O)O; dNMeA = CN[C@H](C)C(=O)O; Sar = CNCC(=O)O
Assays:
[1] = system: BT-474 human mammary gland ductal carcinoma cells; assay: Inhibitory response of test compounds against BT-474 cells (Cell Titer-Glo, 72 h); assay type: cell-based
Protocol: (§1) BT-474 human mammary gland ductal carcinoma cells were seeded in a clear polystyrene 96-well microculture plate (Corning® Costar® 96-well flat bottom plate, Cat.#3997) in a total volume of 90 μL/well. After 24 hours of incubation in a humidified incubator at 37° C. with 5% CO2 and 95% air, 10 μL of 10×, serially diluted test agents in growth medium were added to each well (10 pt dose response curve, highest concentration 10 μM of test agent). After 72 hours of culture in a humidified incubator at 37° C., in an atmosphere of 5% CO2 and 95% air, the plated cells and Cell Titer-Glo® (Promega G7571) reagents were brought to room temperature to equilibrate for 30 minutes. 100 μL of Cell Titer-Glo® reagent was added to each well. The plate was shaken for two minutes and then left to equilibrate for ten minutes. The media/Cell Titer-Glo® reagent was transferred to a white polystyrene 96-well microculture plate (Corning® Costar® 96-well flat bottom plate, Cat.#3917) before reading luminescence on a Tecan GENios microplate reader.
(§2) Percent inhibition of cell growth was calculated relative to untreated control wells. The IC50 value for the test agents was determined using Prism 6.05 by curve-fitting of the data using the following four parameter-logistic equation:
(§3) [formula] where Top is the maximal % of control absorbance, Bottom is the minimal % of control absorbance at the highest agent concentration, Y is the % of control absorbance, X is the agent concentration, IC50 is the concentration of agent that inhibits cell growth by 50% compared to the control cells, and n is the slope of the curve.

HCC1954 cells = assay: Inhibitory response of test compounds against HCC1954 cells (method analogous to BT-474); assay type: cell-based
Protocol: as §1, §2, §3
Inhibitory response of test compounds against HCC1954 cells was determined using a method analogous to that used for BT-474 cells.

Row | SMILES | IC50 ([1]; Homo sapiens) [nM] | IC50 (HCC1954 cells; Homo sapiens) [nM] | IC50 [1] [nM] | IC50 (HCC1954 cells) [nM]
1 | C/C=C(\C)[C@H]1OC(=O)[C@@H](C)NC(=O)[C@H](C(C)CC)NC(=O)CN(C)C(=O)[C@@H](Cc2ccccc2)N(C)C(=O)[C@H](C)NC(=O)[C@@H](CC(C)C)OC(=O)/C(C)=C/C=C/[C@@H]1C (some centres unmarked) [Compound 69] | < 20 | < 20 |  | 
2 | CCC(C)[C@@H]1NC(=O)CN(C)C(=O)[C@@H](Cc2ccccc2)N(C)C(=O)[C@H](C)NC(=O)[C@@H](CC(C)C)OC(=O)/C(C)=C/CCC[C@@H](C(C)C)OC(=O)[C@@H](C)N(C)C1=O (some centres unmarked) [Compound 88] ([dHica]A[dNMeF][Sar][Ile(3ξ)][dNMeA]; linker N-C via X7) | 200 to 10000 | 200 to 10000 |  | 
3 | C/C=C(\C)[C@H]1OC(=O)[C@@H](C)NC(=O)[C@H](C(C)CC)NC(=O)CN(C)C(=O)[C@@H](Cc2ccccc2)N(C)C(=O)[C@H](C)NC(=O)[C@@H](CC(C)C)OC(=O)/C(C)=C/C[C@H](OC(=O)NCCCOCCOCCOCCCNC(=O)CCSSc2ccccn2)[C@@H]1C (some centres unmarked) [Compound L12] |  |  | 200 to 10000 | > 10000
4 | C/C=C(\C)[C@H]1OC(=O)[C@@H](C)NC(=O)[C@H](C(C)CC)NC(=O)CN(C)C(=O)[C@@H](Cc2ccc(OC)cc2)N(C)C(=O)[C@H](C)NC(=O)[C@@H](CC(C)C)OC(=O)/C(C)=C/C=C/[C@@H]1C (some centres unmarked) [Compound 95] | < 20 | 20 to 200 |  | 
5 | C/C=C(\C)[C@H]1OC(=O)[C@@H](C)NC(=O)[C@H]([C@H](C)CC)NC(=O)CN(C)C(=O)[C@@H](Cc2ccccc2)N(C)C(=O)[C@H](C)NC(=O)[C@@H](CC(C)C)OC(=O)/C(C)=C/C[C@H](OC(=O)NCCCCCCNC(=O)CCOCCOCCOCCOCCNC(=O)c2ccc(C=O)cc2)[C@@H]1C [Compound 111] | > 10000 | > 10000 |  | 
6 | C/C=C(\C)[C@H]1OC(=O)[C@@H](C)NC(=O)[C@H]([C@H](C)CC)NC(=O)CN(C)C(=O)[C@@H](Cc2ccccc2)N(C)C(=O)[C@H](CCCCNC(=O)OC(C)(C)C)NC(=O)[C@@H](CC(C)C)OC(=O)/C(C)=C/C[C@H](O)[C@@H]1C [Compound 96] | < 20 | < 20 |  | 
7 | C/C=C(\C)[C@H]1OC(=O)[C@@H](C)NC(=O)[C@H]([C@H](C)CC)NC(=O)CN(C)C(=O)[C@@H](Cc2ccc(F)cc2)N(C)C(=O)[C@H](C)NC(=O)[C@@H](CC(C)C)OC(=O)/C(C)=C/C[C@H](OCSC)[C@@H]1C [Compound 101] | < 20 | < 20 |  | 
8 | C/C=C(\C)[C@H]1OC(=O)[C@@H](C)N(C)C(=O)[C@H](C(C)CC)NC(=O)CN(C)C(=O)[C@@H](Cc2ccccc2)N(C)C(=O)[C@H](C)NC(=O)[C@@H](CC(C)C)OC(=O)/C(C)=C/CC[C@@H]1C (some centres unmarked) [Compound 100] ([dHica]A[dNMeF][Sar][Ile(3ξ)][dNMeA]; linker N-C via X8) | < 20 | 20 to 200 |  | 
9 | CCC(C)[C@@H]1NC(=O)CN(C)C(=O)[C@@H](Cc2ccccc2)N(C)C(=O)[C@H](C)NC(=O)[C@@H](CC(C)C)OC(=O)/C(C)=C/CC[C@H](C)COC(=O)[C@@H](C)NC1=O (some centres unmarked) [Compound 91] ([dHica]A[dNMeF][Sar][Ile(3ξ)][dA]; linker N-C via X5) | 200 to 10000 | 200 to 10000 |  | 
10 | C/C=C(\C)[C@H]1OC(=O)[C@@H](CCCCNC(=O)OC(C)(C)C)NC(=O)[C@H]([C@H](C)CC)NC(=O)CN(C)C(=O)[C@@H](Cc2ccccc2)N(C)C(=O)[C@H](C)NC(=O)[C@@H](CC(C)C)OC(=O)/C(C)=C/C[C@H](CCSC)[C@@H]1C [Compound 82] | < 20 | 20 to 200 |  | 
11 | C/C=C(\C)[C@H]1OC(=O)[C@@H](C)NC(=O)[C@H](C(C)CC)NC(=O)CN(C)C(=O)[C@@H](Cc2ccc(O)cc2)N(C)C(=O)[C@H](C)NC(=O)[C@@H](CC(C)C)OC(=O)/C(C)=C/C=C/[C@@H]1C (some centres unmarked) [Compound 99] | 20 to 200 | 200 to 10000 |  | 
12 | C/C=C(\C)[C@H]1OC(=O)[C@@H](C)NC(=O)[C@H](C(C)CC)NC(=O)CN(C)C(=O)[C@@H](Cc2ccccc2)N(C)C(=O)[C@H](C)NC(=O)[C@@H](Cc2ccccc2)NC(=O)/C(C)=C/C[C@H](O)[C@@H]1C (some centres unmarked) [Compound 64] ([dF]A[dNMeF][Sar][Ile(3ξ)][dA]; linker N-C via X3) | < 20 | 20 to 200 |  | 
13 | C/C=C(\C)[C@H]1OC(=O)[C@@H](C)NC(=O)[C@H](C(C)CC)NC(=O)CN(C)C(=O)[C@@H](Cc2ccc(O)cc2)N(C)C(=O)[C@H](C)NC(=O)[C@@H](CC(C)C)OC(=O)/C(C)=C/CC[C@@H]1C (some centres unmarked) [Compound 102] | < 20 | 20 to 200 |  | 
14 | C/C=C(\C)[C@H]1OC(=O)[C@@H](C)NC(=O)[C@H]([C@H](C)CC)NC(=O)CN(C)C(=O)[C@@H](Cc2ccccc2)N(C)C(=O)[C@H](C)NC(=O)[C@@H](CC(C)C)OC(=O)/C(C)=C/C[C@H](OC(=O)N(C)CCN(C)C(=O)OCC[Si](C)(C)C)[C@@H]1C [Compound 117] | 20 to 200 | 20 to 200 |  | 
15 | C/C=C(\C)[C@H]1OC(=O)[C@@H](C)NC(=O)[C@H]([C@H](C)CC)NC(=O)CN(C)C(=O)[C@@H](Cc2ccccc2)N(C)C(=O)[C@H](C)NC(=O)[C@@H](CC(C)C)OC(=O)/C(C)=C/C[C@H](CC(=O)N(C)CCN(C)C(=O)c2ccc(C=O)cc2)[C@@H]1C [Compound 110] | < 20 | 20 to 200 |  | 
16 | C/C=C(\C)[C@H]1OC(=O)[C@@H](C)NC(=O)[C@H](C(C)CC)NC(=O)CN(C)C(=O)[C@@H](Cc2ccccc2)N(C)C(=O)[C@H](C)NC(=O)[C@@H](CC(C)C)OC(=O)/C(C)=C/C[C@H](OC(=O)NCCO)[C@@H]1C (some centres unmarked) [Compound 123] | < 20 | < 20 |  | 
17 | C/C=C(\C)[C@H]1OC(=O)[C@@H](C)NC(=O)[C@H](C(C)CC)NC(=O)CN(C)C(=O)[C@@H](Cc2ccccc2)N(C)C(=O)[C@H](C)NC(=O)[C@@H](CC(C)C)OC(=O)/C(C)=C/C[C@H](CC(=O)NCCCCCCN)[C@@H]1C (some centres unmarked) [Compound 107] | < 20 | 20 to 200 |  | 
18 | C/C=C(\C)[C@H]1OC(=O)[C@@H](C)NC(=O)[C@H]([C@H](C)CC)NC(=O)CN(C)C(=O)[C@@H](Cc2ccccc2)N(C)C(=O)[C@H](C)NC(=O)[C@@H](CC(C)C)OC(=O)/C(C)=C/C[C@H](OC(=O)N(C)CCN(C)S(=O)(=O)c2ccc([N+](=O)[O-])cc2)[C@@H]1C [Compound 115] | < 20 | < 20 |  | 
19 | C/C=C(\C)[C@H]1OC(=O)[C@@H](C)NC(=O)[C@H](C(C)CC)NC(=O)CN(C)C(=O)[C@@H](Cc2ccccc2)N(C)C(=O)[C@H](C)NC(=O)[C@@H](CC(C)C)OC(=O)/C(C)=C/CC[C@@H]1C (some centres unmarked) [Compound 90] | < 20 | < 20 |  | 
20 | C/C=C(\C)[C@H]1OC(=O)[C@@H](C)NC(=O)[C@H]([C@H](C)CC)NC(=O)CN(C)C(=O)[C@@H](Cc2ccccc2)N(C)C(=O)[C@H](C)NC(=O)[C@@H](CC(C)C)OC(=O)/C(C)=C/C[C@H](OC(=O)NCCCCCCNC(=O)OC(C)(C)C)[C@@H]1C [Compound 105] | < 20 | < 20 |  | 
21 | C/C=C(\C)[C@H]1OC(=O)[C@@H](C)NC(=O)[C@H](C(C)CC)NC(=O)CN(C)C(=O)[C@@H](Cc2ccccc2)N(C)C(=O)[C@H](C)NC(=O)[C@@H](CC(C)C)OC(=O)/C(C)=C/C[C@H](OC(=O)NCCCOCCOCCOCCCN)[C@@H]1C (some centres unmarked) [Compound 108] | 20 to 200 | 200 to 10000 |  | 
22 | C/C=C(\C)[C@H]1OC(=O)[C@@H](C)NC(=O)[C@H]([C@H](C)CC)NC(=O)CN(C)C(=O)[C@@H](Cc2ccc(OCc3ccccc3)cc2)N(C)C(=O)[C@H](C)NC(=O)[C@@H](CC(C)C)OC(=O)/C(C)=C/C=C/[C@@H]1C [Compound 98] | < 20 | < 20 |  | 

From patent US10472395B2, “Cyclic peptide analogs and conjugates thereof” (Sirenas LLC, priority 2015, dated 2019)
